Test results: paper PMC12683216, “Using High‐Throughput Screening to Identify Crosslinking Peptides That Control Cell‐Mediated Matrix Degradation” (Advanced Healthcare Materials, 2025)
Where a SMILES comes first, the peptide text is derived from it. [ ]: non-standard residue; d: D form. βAla = NCCC(=O)O

What was measured:
hMSCs = experiment: Cell growth and viability within peptide-crosslinked hydrogels; type: cell-based, human; details: 3.5% 8-arm PEG, 40% arms crosslinking peptide, 10% cyclic RGD, 20 million cells mL^−1, up to Day 7
Excerpt: (§1) Each of the peptides was then used to crosslink hydrogels containing hMSCs or hUVECs at 20 million cells mL^−1 and cultured for 1, 3, or 7 days. To maximize cell spreading, we made soft hydrogels that were 3.5% 8‐arm poly(ethylene glycol) (PEG) by weight. 40% of the arms were reacted with the crosslinking peptides, and 10% of the arms were functionalized with a cyclic RGD peptide for cell adhesion. […] This supports the inhibitor studies for the soluble peptides in which the MMP‐14 inhibitor completely abolished the degradation of the KLVAD‐LM peptide by hUVECs, but not the PanMMP peptide. (Figure 3C).
(§2) For all hydrogel studies, the total volume of hydrogel was 20 µL, made with 3.5% (wt/wt) PEG, 40% of the arms were functionalized with crosslinking peptides, and 10% were functionalized with cyclic‐RGD, with a final cell concentration of 20 million cells per mL. Briefly, the PEG was dissolved at 140 mg mL^−1 in PBS, the crosslinking peptides were dissolved at 22.4 mM in PBS, and the cyclic RGD was dissolved at 5.6 mM in PBS. hMSCs were harvested from T‐75 flasks. After centrifugation and pouring the supernatant liquid, the cells were resuspended at 80 000 000 or 4 000 000 cells mL^−1. The cyclic RGD and PEG PBS solutions were mixed at the ratio of 1:1. Add 10 µL of the PEG‐cyclic RGD mixer in the wells and incubate for 10 mins. The crosslinking peptides and cell solutions were mixed at a ratio of 1:1. 10 µL of the peptide‐cell mixture was pipetted into the PEG‐cyclic RGD mixer previously dropped in the wells. The solutions were pipetted until well mixed, and after 15 min in the incubator 1 mL of media was added into each well and kept in the incubator. For gels intended for imaging, 12 mm round glass coverslips were placed in each well of the 24‐well plates prior to hydrogel fabrication. For cell viability test, sylgard layers were prepared in 24 well plates to prevent unwanted cell growth on the bottom of the well wall. Sylgard kit Part A/Part B was mixed in a 10:1 ratio by volume, and the mixture was added to the 24 well plates such that the bottom of each well was completely covered by Sylgard. The plates were placed in a biosafety hood overnight with UV light on. For all studies, three technical replicates were done per condition, and the studies were repeated three times.
(§3) The hydrogels were washed with PBS three times and incubated in 4% formaldehyde in PBS for 20 min. The hydrogels were again washed with PBS three times, followed by an incubation in 0.25% Triton X‐100 in PBS solution for 20 min. The hydrogels were washed with PBS three times, followed by a 20‐min incubation of in 1% BSA in PBS. The gels were washed 3x in PBS, and 700 µL of Phalloidin/DAPI PBS staining solution (0.1% BSA, 1 µg mL^−1 DAPI, and 1 µg mL^−1 phalloidin‐iFluor 555) was added to each well, and it was incubated for 1 h in the dark at room temperature. The hydrogels were washed 3x, and 1 mL PBS was added to each well, and they were stored in a 4 °C until they were ready for imaging.
(§4) Hydrogels were imaged by confocal microscope (LSM 800, AxioObserver, EC Olan‐Neofluar 10x/0.3 objective). The 12 mm round slides with hydrogels were taken out of 24 well plates and flipped gel side down on round‐bottom slides. Confocal microscopy was carried out in the Z‐stack mode. Phalloidin was excited at 488 nm and recorded between 493 and 630 nm. DAPI was excited at 405 nm and recorded between 410 and 501 nm. Cells in each hydrogel were measured with ImageJ software according to the particle analysis results and then averaged to obtain the mean cell area in the hydrogels.
(§5) On Days 1, 3, and 7, the media from the wells was removed and 500 µL of a 10× diluted Alamar Blue stock solution in media was added to each well with hydrogels. Three wells without any cells were used for background subtraction. The gels were incubated for 4 h, at which time the absorbance was measured with a spectrophotometer at a wavelength of 579 nm (600 nm reference). […]

hUVECs = experiment: as above; type: cell-based, human; details: 3.5% 8-arm PEG, 40% arms crosslinking peptide, 10% cyclic RGD, 20 million cells mL^−1, up to Day 7
Excerpt: as §1, §2, §3, §4, §5

| Structure (SMILES) | cell spreading, growth and viability of hMSCs in crosslinked hydrogels (hMSCs) | cell spreading, growth and viability of hUVECs in crosslinked hydrogels (hUVECs) |
| --- | --- | --- |
| CC(=O)NCCC(=O)N[C@@H](CCCCN)C(=O)N[C@@H](CC(C)C)C(=O)N[C@H](C(=O)N[C@@H](C)C(=O)N[C@@H](CC(=O)O)C(=O)N1CCC[C@H]1C(=O)N[C@@H](Cc1ccc(O)cc1)C(=O)N[C@@H](C)C(=O)N[C@@H](CO)C(=O)N[C@@H](C)C(=O)N[C@@H](CCC(=O)O)C(=O)NCCC(N)=O)C(C)C [KLVAD-PY] (Ac-[βAla]KLVADPYASAE[βAla]-NH2) | less cell spreading and viability | less cell spreading and viability |
| CSCC[C@H](NC(=O)[C@H](CC(C)C)NC(=O)[C@H](CC(=O)O)NC(=O)[C@H](C)NC(=O)[C@@H](NC(=O)[C@H](CC(C)C)NC(=O)[C@H](CCCCN)NC(=O)CCNC(C)=O)C(C)C)C(=O)N[C@@H](C)C(=O)N[C@@H](CO)C(=O)N[C@@H](C)C(=O)N[C@@H](CCC(=O)O)C(=O)NCCC(N)=O [KLVAD-LM] (Ac-[βAla]KLVADLMASAE[βAla]-NH2) | supported cell spreading and growth | supported cell spreading and growth |
| CC(=O)NCCC(=O)N[C@@H](CCCCN)C(=O)N[C@@H](CC(C)C)C(=O)N[C@H](C(=O)N[C@@H](C)C(=O)N[C@@H](CC(=O)O)C(=O)N[C@@H](CC(N)=O)C(=O)N[C@@H](Cc1ccc(O)cc1)C(=O)N[C@@H](C)C(=O)N[C@@H](CO)C(=O)N[C@@H](C)C(=O)N[C@@H](CCC(=O)O)C(=O)NCCC(N)=O)C(C)C [KLVAD-NY] (Ac-[βAla]KLVADNYASAE[βAla]-NH2) | no detectable cells | only minimal cell spreading |
